Source: patent publication EP0677039B1, “CYCLOBUTANE DERIVATIVES AS INHIBITORS OF […] SYNTHETASE AND PROTEIN […]” (Abbott Laboratories, priority 1993, dated 1995)

Biological target: T1, Rat liver microsomal squalene synthetase (Rattus norvegicus, UniProt Q02769)
T1 construct: Rat liver microsome, the source of enzyme; from tissue; host or cells: rat liver microsomes
T1 sequence (Q02769 1-416): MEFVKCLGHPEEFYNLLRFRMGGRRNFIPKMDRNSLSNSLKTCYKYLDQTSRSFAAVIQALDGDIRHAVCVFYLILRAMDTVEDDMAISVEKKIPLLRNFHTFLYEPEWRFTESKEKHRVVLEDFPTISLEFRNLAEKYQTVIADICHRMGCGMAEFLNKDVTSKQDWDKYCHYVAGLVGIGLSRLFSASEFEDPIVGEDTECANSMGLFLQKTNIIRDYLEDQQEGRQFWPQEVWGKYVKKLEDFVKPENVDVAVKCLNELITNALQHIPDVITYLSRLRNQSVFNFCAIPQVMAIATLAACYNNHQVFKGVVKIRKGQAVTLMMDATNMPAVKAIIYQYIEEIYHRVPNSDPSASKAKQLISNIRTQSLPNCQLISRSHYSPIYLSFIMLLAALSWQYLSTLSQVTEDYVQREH
Experiment: In vitro inhibition of squalene synthetase
Format: biochemical
Conditions: rat liver microsomes, labelled farnesyl pyrophosphate, 10 minutes at 37 °C; for inhibition at 10 µM: 10 µM test compound, compared to controls with no test compound
Description: In vitro inhibition of squalene synthetase may be measured by the following procedure. Rat liver microsomal squalene synthetase activity was measured using farnesyl pyrophosphate as a substrate and quantitating squalene synthesis using labelled farnesyl pyrophosphate and counting the squalene formed. Rat liver microsome, the source of enzyme, was prepared according to the method of Gillies, P. J., et al., Exp. Molc. Pathol. 44: 329-339 (1986), a modification of the procedure of Erickson, S. K., and Cooper, A. D., Metabolism, 29: 991-996 (1980). […] Oxygen was excluded from the closed incubation tube by degassing with nitrogen. The reaction was terminated by the addition of ethanolic KOH and after degassing with N2, the microsomal membranes were solubilized by heating at 60 °C for 30 minutes. The squalene was extracted into hexane, and the squalene was separated from all other radioactive molecules by passage over an activated alumina column. […] The per cent inhibition at a dose of 10 µM (or 1 µM) compared to controls with no test compound was determined. […]

[1] = values marked * in Table 1: 1 µM test compound

inhibition at 1 µM [1] [%]	inhibition at 10 µM [%]	Compound	also measured
92		O=C(O)C1C(C(=O)O)C(C(=O)N(Cc2ccc(Oc3ccccc3)cc2)CC2CC2)C1C(=O)N(Cc1ccc(Oc2ccccc2)cc1)CC1CC1 (single isomer, unassigned; (-)) [Example 129B, (-)-(1α,2β,3β,4α)-1,2-Di[N-cyclopropylmethyl-N-(4-phenoxybenzyl)aminocarbonyl]cyclobutane-3,4-dicarboxylic acid]	
	51	CCCN(CCc1ccc(Oc2ccccc2)cc1)C(=O)[C@H]1[C@@H](C(=O)O)[C@H](C(=O)O)[C@@H]1C(=O)N(CCC)CCc1ccc(Oc2ccccc2)cc1 [Example 38H, (1α,2β,3β,4α)-1,2-Di[N-propyl-N-(2-(4-phenoxyphenyl)ethyl)aminocarbonyl]cyclobutane-3,4-dicarboxylic acid]	
	59	CCCN(C(=O)C1C(C(=O)O)C(C(=O)O)C1C(=O)N(CCC)c1ccc(Oc2ccccc2)cc1)c1ccc(Oc2ccccc2)cc1 (stereo not drawn) [Example 39C, (1α,2β,3β,4α)-1,2-Di[N-propyl-N-(4-phenoxyphenyl)aminocarbonyl]cyclobutane-3,4-dicarboxylic acid]	
	82	COCCN(Cc1ccc(Oc2ccccc2)cc1)C(=O)C1C(C(=O)O)C(C(=O)O)C1C(=O)N(CCOC)Cc1ccc(Oc2ccccc2)cc1 (stereo not drawn) [Example 40B, (1α,2β,3β,4α)-1,2-Di[N-(2-methoxyethyl)-N-(4-phenoxybenzyl)aminocarbonyl]cyclobutane-3,4-dicarboxylic acid]	
72		CSCCN(Cc1ccc(Oc2ccccc2)cc1)C(=O)C1C(C(=O)O)C(C(=O)O)C1C(=O)N(CCSC)Cc1ccc(Oc2ccccc2)cc1 (stereo not drawn) [Example 41B, (1α,2β,3β,4α)-1,2-Di[N-(2-methylthioethyl)-N-(4-phenoxybenzyl)aminocarbonyl]cyclobutane-3,4-dicarboxylic acid]	
	87	O=C(O)C1C(C(=O)O)C(C(=O)N(Cc2ccc(Oc3ccccc3)cc2)CC2CC2)C1C(=O)N(Cc1ccc(Oc2ccccc2)cc1)CC1CC1 (stereo not drawn) [Example 47B, (1α,2β,3β,4α)-1,2-Di[N-(cyclopropylmethyl)-N-(4-phenoxybenzyl)aminocarbonyl]cyclobutane-3,4-dicarboxylic acid]	

Further lines, the compound ahead of its results:

Compound	inhibition at 1 µM [1] [%]	inhibition at 10 µM [%]	also measured
CCCN(Cc1ccc(Oc2ccccc2)cc1)C(=O)C1C(C(=O)O)C(C(=O)NC(CO)C(=O)O)C1C(=O)N(CCC)Cc1ccc(Oc2ccccc2)cc1 (single isomer, unassigned) [Example 110B, (1α,2β,3β,4α)-1,2-Di[N-propyl-N-(4-phenoxybenzyl)aminocarbonyl]cyclobutane-3,4-dicarboxylic acid mono-Serine amide]			% Inhibition at 1 µM (values marked * in Table 1: 1 µM test compound, 1 µM): 69* %
CN(Cc1ccc(OCc2ccccc2)cc1)C(=O)[C@H]1[C@@H](C(=O)O)[C@H](C(=O)O)[C@@H]1C(=O)N(C)Cc1ccc(OCc2ccccc2)cc1 [Example 14, (1α,2β,3β,4α)-1,2-Di(N-methyl-N-(4-benzyloxybenzyl)aminocarbonyl]cyclobutane-3,4-dicarboxylic acid]		31	
O=C(O)[C@H]1[C@H](C(=O)O)[C@H](C(=O)N(Cc2ccccc2)Cc2ccc(Oc3ccccc3)cc2)[C@H]1C(=O)N(Cc1ccccc1)Cc1ccc(Oc2ccccc2)cc1 [Example 15, (1α,2β,3β,4α)-1,2-Di[N-benzyl-N-(4-phenoxybenzyl)aminocarbonyl]cyclobutane-3,4-dicarboxylic acid]		99	
CN(Cc1cccc(Oc2ccccc2)c1)C(=O)[C@H]1[C@@H](C(=O)O)[C@H](C(=O)O)[C@@H]1C(=O)N(C)Cc1cccc(Oc2ccccc2)c1 [Example 18, (1α,2β,3β,4α)-1,2-Di[N-methyl-N-(3-phenoxybenzyl)aminocarbonyl]cyclobutane-3,4-dicarboxylic acid]		55	
O=C(O)[C@H]1[C@H](C(=O)O)[C@H](C(=O)N(Cc2ccc(Oc3ccccc3)cc2)Cc2ccc(Oc3ccccc3)cc2)[C@H]1C(=O)N(Cc1ccc(Oc2ccccc2)cc1)Cc1ccc(Oc2ccccc2)cc1 [Example 19, (1α,2β,3β,4α)-1,2-Di[N,N-di(4-phenoxybenzyl)aminocarbonyl]cyclobutane-3,4-dicarboxylic acid]		86	
CN(Cc1cccc(Oc2ccc(F)cc2)c1)C(=O)[C@H]1[C@@H](C(=O)O)[C@H](C(=O)O)[C@@H]1C(=O)N(C)Cc1cccc(Oc2ccc(F)cc2)c1 [Example 21, (1α,2β,3β,4α)-1,2-Di[N-methyl-N-(3-[4-fluorophenoxy]benzyl)aminocarbonyl]cyclobutane-3,4-dicarboxylic acid]		52	
CN(C(=O)[C@H]1[C@@H](C(=O)O)[C@H](C(=O)O)[C@@H]1C(=O)N(C)c1ccc(-c2ccccc2)cc1)c1ccc(-c2ccccc2)cc1 [Example 22, (1α,2β,3β,4α)-1,2-Di[N-methyl-N-biphenylamino-carbonyl]cyclobutane-2,4-dicarboxylic acid]		20	
CCCN(Cc1ccc(Cc2ccccc2)cc1)C(=O)[C@H]1[C@@H](C(=O)O)[C@H](C(=O)O)[C@@H]1C(=O)N(CCC)Cc1ccc(Cc2ccccc2)cc1 [Example 25, (1α,2β,3β,4α)-1,2-Di[N-propyl-N-(4-benzylbenzyl)aminocarbonyl]cyclobutane-3,4-dicarboxylic acid]		84	
C#CCN(Cc1ccc(Oc2ccccc2)cc1)C(=O)[C@H]1[C@@H](C(=O)O)[C@H](C(=O)O)[C@@H]1C(=O)N(CC#C)Cc1ccc(Oc2ccccc2)cc1 [Example 27, (1α,2β,3β,4α)-1,2-Di[N-propargyl-N-(4-phenoxybenzyl)aminocarbonyl]cyclobutane-3,4-dicarboxylic acid]		79	
C=CCN(Cc1ccc(Oc2ccccc2)cc1)C(=O)[C@H]1[C@@H](C(=O)O)[C@H](C(=O)O)[C@@H]1C(=O)N(CC=C)Cc1ccc(Oc2ccccc2)cc1 [Example 29, (1α,2β,3β,4α)-1,2-Di[N-allyl-N-(4-phenoxybenzyl)aminocarbonyl]cyclobutane-3,4-dicarboxylic acid]	72		
O=C(O)[C@H]1[C@H](C(=O)O)[C@H](C(=O)N(Cc2ccc(Oc3ccccc3)cc2)C2CC2)[C@H]1C(=O)N(Cc1ccc(Oc2ccccc2)cc1)C1CC1 [Example 30, (1α,2β,3β,4α)-1,2-Di[N-cyclopropyl-N-(4-phenoxybenzyl)aminocarbonyl]cyclobutane-3,4-dicarboxylic acid]		67	
O=C(O)[C@H]1[C@H](C(=O)O)[C@H](C(=O)N(Cc2ccc(Oc3ccccc3)cc2)CC2CCCCC2)[C@H]1C(=O)N(Cc1ccc(Oc2ccccc2)cc1)CC1CCCCC1 [Example 31]	37		
C[C@@H](c1ccccc1)N(Cc1ccc(Oc2ccccc2)cc1)C(=O)[C@H]1[C@@H](C(=O)O)[C@H](C(=O)O)[C@@H]1C(=O)N(Cc1ccc(Oc2ccccc2)cc1)[C@@H](C)c1ccccc1 [Example 34]		89	
C[C@H](c1ccccc1)N(Cc1ccc(Oc2ccccc2)cc1)C(=O)[C@H]1[C@@H](C(=O)O)[C@H](C(=O)O)[C@@H]1C(=O)N(Cc1ccc(Oc2ccccc2)cc1)[C@H](C)c1ccccc1 [Example 35]	59		
O=C(O)[C@H]1[C@H](C(=O)O)[C@H](C(=O)N(CC=CC=Cc2ccccc2)Cc2ccccc2)[C@H]1C(=O)N(CC=CC=Cc1ccccc1)Cc1ccccc1 [Example 36, (1α,2β,3β,4α)-1,2-Di[N-benzyl-N-(5-phenyl-2,4-pentadienyl)aminocarbonyl]cyclobutane-3,4-dicarboxylic acid]		63	
CCSCCN(Cc1ccc(Oc2ccccc2)cc1)C(=O)C1C(C(=O)O)C(C(=O)O)C1C(=O)N(CCSCC)Cc1ccc(Oc2ccccc2)cc1 (stereo not drawn) [Example 42, (1α,2β,3β,4α)-1,2-Di[N-(2-ethylthioethyl)-N-(4-phenoxybenzyl)aminocarbonyl]cyclobutane-3,4-dicarboxylic acid]	81		
O=C(O)C1C(C(=O)O)C(C(=O)N(CCF)Cc2ccc(Oc3ccccc3)cc2)C1C(=O)N(CCF)Cc1ccc(Oc2ccccc2)cc1 (stereo not drawn) [Example 43, (1α,2β,3β,4α)-1,2-Di[N-(2-fluoroethyl)-N-(4-phenoxybenzyl)aminocarbonyl]cyclobutane-3,4-dicarboxylic acid]	47		
O=C(O)C1C(C(=O)O)C(C(=O)N(Cc2ccc(Oc3ccccc3)cc2)Cc2ccco2)C1C(=O)N(Cc1ccc(Oc2ccccc2)cc1)Cc1ccco1 (stereo not drawn) [Example 44, (1α,2β,3β,4α)-1,2-Di[N-(furan-2-ylmethyl)-N-(4-phenoxybenzyl)aminocarbonyl)cyclobutane-3,4-dicarboxylic acid]	56		
O=C(O)C1C(C(=O)O)C(C(=O)N(Cc2ccc(Oc3ccccc3)cc2)Cc2cccs2)C1C(=O)N(Cc1ccc(Oc2ccccc2)cc1)Cc1cccs1 (stereo not drawn) [Example 45, (1α,2β,3β,4α)-1,2-Di[N-(thien-2-ylmethyl)-N-(4-phenoxybenzyl)aminocarbonyl]cyclobutane-3,4-dicarboxylic acid]	50		
